According to PMC9814901, “One-pot synthesis of cyclic-aminotropiminium carboxylate derivatives with DNA binding and anticancer properties” (Communications Chemistry, 2022):

How the values were obtained:
ct-DNA duplex = experiment: Circular dichroism of ct-DNA with cATC derivatives; assay type: binding; conditions: increasing concentration of cATC derivatives
Description: Further, we examined the effect of cATC derivatives (6a/6e/6j/6n) on the ct-DNA duplex structure by circular dichroism (CD) studies. We recorded the CD spectra of ct-DNA with the increasing concentration of cATC derivatives (SM, Fig. S24). […] Next, we examined the binding site of cATC derivative (ligand) at the DNA duplex structure by using AutoDock-Vina, a well-reported computational docking program. We performed docking of cATC derivatives (6a/6d/6k) crystal structure (ligand) with dodecamer DNA duplex crystal structure (PDB ID-1BNA) as the receptor. Our docking results strongly support the non-covalent interaction of cATC derivatives (6a/6d/6k) at the DNA-minor groove with the binding affinity ~7.0 Kcal/mole, mostly hydrophobic interactions (SM, Figs. S25–7, Table S8). […] Overall, cATC derivatives non-covalently bind with DNA duplex through the non-intercalative mode without affecting the native duplex structure. Next, we examined the DNA binding affinity of cATC derivatives (6e/6j/6n) by gel-electrophoresis. The different concentrations of human genomic DNA were treated with EtBr (control) and cATC derivatives (6e/6j/6n) and ran on 1% agarose gel (SM, Fig. S28A–D). […] Further, the Microscale thermophoresis (MST) technique was used to calculate the binding affinities of cATC derivatives (6e/6j/6n) (20 µM) with varying concentrations of human genomic DNA (40 fM to 75 pM).

HeLa cells [1] = experiment: MTS cell viability assay in HeLa; assay type: cell-based; conditions: 10 nM to 50 μM, 18 h
Description: We investigated the effect of nine cATC derivatives (6b/6d/6e/6f/6i/6j/6k/6l/6n) on cell viability in cancer cell-line HeLa and transformed normal cell-line HEK293. We treated cells with the varying concentrations of the compounds ranging from 10 nM to 50 μM for 18 h (optimized).
MTS assay (CellTiter 96® AQueous One Solution Cell Proliferation Assay (Promega, USA) was used to determine the cell viability. HeLa and HEK293 cells (20,000 cells in each well) were plated in 96 well plate and treated with 6e, 6j, and 6n varying concentrations of the compounds ranging from 10 nM to 50 μM for 18 h. The assay was carried out according to the manufacturer’s instructions. Finally, the plate was read in Varioskan™ LUX multimode microplate reader (Thermo Fisher Scientific) at 490 nm.
Cell scavenging activity was calculated using the following formula:
OD(490nm) (control) – OD(490nm) (Test)/OD(490nm) (control) × 100%
Cell Viability of the cell was calculated using the following formula: […]

HeLa cells [2] = experiment: cells; parameters: MTS cell viability assay, absorbance at 490 nm; conditions: Homo sapiens, 18 h; read-out: IC50 concentration in (µM), HeLa
Description: MTS assay (CellTiter 96® AQueous One Solution Cell Proliferation Assay (Promega, USA) was used to determine the cell viability. HeLa and HEK293 cells (20,000 cells in each well) were plated in 96 well plate and treated with 6e, 6j, and 6n varying concentrations of the compounds ranging from 10 nM to 50 μM for 18 h. The assay was carried out according to the manufacturer’s instructions. Finally, the plate was read in Varioskan™ LUX multimode microplate reader (Thermo Fisher Scientific) at 490 nm. We investigated the effect of nine cATC derivatives (6b/6d/6e/6f/6i/6j/6k/6l/6n) on cell viability in cancer cell-line HeLa and transformed normal cell-line HEK293. We treated cells with the varying concentrations of the compounds ranging from 10 nM to 50 μM for 18 h (optimized). […] Cell scavenging for 6e and 6j at 50 μM was 84.74% and 89.87%, respectively, and for 6n at 30 μM it was 75.43%. Corresponding cell viability was 15.25%, 10.13% and, 24.56%, respectively. Fluorescence signal became visible inside cells at 12 μM, 12 μM, and 20 μM concentrations for 6e, 6j, and 6n, respectively (SM, Figs. S31, S34, S37). […] Scavenging activity for 6e, 6j, and 6n was 61.1%, 18.23%, and 30.1%, respectively at 30 μM concentration (Fig. 5D–F). Corresponding cell viability was 38.82%, 81.76%, and 69.86%, respectively. The IC50 value of all the compounds was at the micromolar (μM) level which is shown in the Supplemental Material (Table S9 and S10).

SMILES | effect on B-type duplex CD spectrum of ct-DNA (ct-DNA duplex) | melting point [°C] | effect on HeLa cell proliferation (HeLa cells [1]) | IC50 (HeLa cells [2]) [µM]
O=C([O-])C1C(c2ccccc2)N(Cc2ccccc2)[c+]2cccccc2N1CCc1ccccc1 (stereo not drawn) [Compound 6a, N-benzyl-N-phenylethyl phenyl troponyl dihydropyrazinium carboxylate] | almost remained unchanged | 135 to 140 |  | 
COc1cc(OC)cc(C2C(C(=O)[O-])N(CCc3ccccc3)c3ccccc[c+]3N2Cc2ccccc2)c1 (stereo not drawn) [Compound 6b] |  |  | no or minimal effect | > 50
O=C([O-])C1C(c2ccc([N+](=O)[O-])cc2)N(Cc2ccccc2)[c+]2cccccc2N1CCc1ccccc1 (stereo not drawn) [Compound 6d, N-Benzyl-N-phenylethyl 4-nitrophenyl troponyl dihydrapyrazine carboxylic acid] |  |  | no or minimal effect | > 50
N#Cc1ccc(C2C(C(=O)[O-])N(CCc3ccccc3)c3ccccc[c+]3N2Cc2ccccc2)cc1 (stereo not drawn) [Compound 6f] |  |  | no or minimal effect | > 50
C#CCN1[c+]2cccccc2N(CCc2ccccc2)C(C(=O)[O-])C1c1ccccc1 (stereo not drawn) [Compound 6i] |  | 122 to 125 | no or minimal effect | > 50
CCCCCCCCN1[c+]2cccccc2N(CCc2ccccc2)C(C(=O)[O-])C1c1ccc(F)cc1 (stereo not drawn) [Compound 6k, N-octyl-N-phenylethyl 4-fluorophenyl troponyl dihydrapyrazinium carboxylate] |  | 123 to 125 |  | 
O=C([O-])C1C(c2ccc(O)cc2)N(C2CCCCC2)[c+]2cccccc2N1CCc1ccccc1 (stereo not drawn) [Compound 6l] |  |  | no or minimal effect | > 50
O=C([O-])C1C(C=Cc2ccccc2)N(Cc2ccccc2)[c+]2cccccc2N1CCc1ccccc1 (stereo not drawn) [Compound 6n] |  | 118 to 120 |  | 
